pKi: −log10 of the molar value.
Experiments:
[1] = target: T1, S-adenosylmethionine synthase isoform type-1 (Rattus norvegicus, UniProt P13444); test: Compound was evaluated for its inhibitory activity against recombinant S-adenosyl L-Methionine synthetase (alpha-isoform) in rat liver
[2] = target: T1, S-adenosylmethionine synthase isoform type-1; test: Compound was evaluated for its inhibitory activity against recombinant S-adenosyl L-Methionine synthetase (alpha-isoform) in rat liver; No significant activity

T1 sequence (P13444 whole entry, canonical isoform): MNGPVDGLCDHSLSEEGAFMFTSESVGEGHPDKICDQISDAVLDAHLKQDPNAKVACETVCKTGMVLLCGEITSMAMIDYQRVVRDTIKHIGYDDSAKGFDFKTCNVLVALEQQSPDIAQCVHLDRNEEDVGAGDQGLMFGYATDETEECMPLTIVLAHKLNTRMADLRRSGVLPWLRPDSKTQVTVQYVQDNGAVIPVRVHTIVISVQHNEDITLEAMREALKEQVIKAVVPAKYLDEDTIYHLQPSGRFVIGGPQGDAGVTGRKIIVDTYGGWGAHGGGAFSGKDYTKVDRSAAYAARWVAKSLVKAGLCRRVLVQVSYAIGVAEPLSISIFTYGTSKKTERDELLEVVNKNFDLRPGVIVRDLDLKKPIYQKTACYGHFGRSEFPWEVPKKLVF

Structure (SMILES): NC1(C(=O)O)CCSCC1
- pKi [1]: 2.52

Structure (SMILES): NC1(C(=O)O)CCCC1 [CYCLOLEUCINE]
- pKi [1]: 3.29

Structure (SMILES): CO/C=C\[C@H](N)C(=O)O
- pKi [1]: 4.25

Structure (SMILES): NC1(C(=O)O)CCOCC1
- pKi [1]: 3.00

Structure (SMILES): N[C@]1(C(=O)O)CCOC1
- Ki [2]: Not Active
- pKi [1]: 3.12

Structure (SMILES): N[C@]1(C(=O)O)CCSC1
- Ki [2]: Not Active
- pKi [1]: 2.98

— ChEMBL document CHEMBL1130856, “A new series of cyclic amino acids as inhibitors of S-adenosyl L-methionine synthetase” (Bioorg Med Chem Lett, 1998)
